In patent publication US8399412B2, “Method of treating or preventing tissue deterioration, injury or damage due to periodontal disease or disease of oral mucosa, and/or downregulating NF-kappabeta or supressing NF-kappabeta-mediated actions” (priority 2006, dated 2013):

Key:
IL-8 = assay: TNFα-induced IL-8 secretion by gingival fibroblasts (ELISA); type: cell-based, Human; details: for secreted IL-8 versus fibroblasts not treated with Tβ4: gingival fibroblasts, 20 ng/ml TNF alpha
Method: Human gingival Fb grown to 80% confluence, serum-starved, pretreated with Tb4 for one hour then with 20 ng/ml TNFa±Tb4 for 24 hours. […] of conditioned medium was used for ELISA. After removing medium, cells are fixed, stained, and lysed. OD 550 nm readings are used to normalize ELISA data for total cell number. Media control values were negligible and are not shown.
Human gingival fibroblasts (HGF-1, ATCC) were stimulated with TNFα (20 ng/ml), a potent pro-inflammatory cytokine widely used in in vitro models of inflammation.

gingival fibroblasts = assay: APOPercentage apoptosis assay in TNF-α stimulated gingival fibroblasts; type: cell-based, Human; details: TNF-α 20 ng/ml, 8 hours, 0.01 ug/ml Tβ4, p=0.0004
Method: It is well documented that proteases from oral bacteria such as P. gingivalis can induce death in different cell types in vitro, including fibroblasts, epithelial cells, and endothelial cells. Apoptosis can also be induced as a component of the inflammatory response.
The fibroblasts were then assayed using the APOPercentage assay (Accurate Chemical, Westbury, N.Y.), which detects changes in cell membrane phospholipids. […] The absorbance of released dye can be measured and correlated to the relative amount of apoptosis in the culture. […] There were a greater number of apoptotic cells in fibroblasts stimulated with TNFα compared to cells stimulated with TNFα and also treated with Tβ4.

NFκB [1] = assay: NFκB activity assay (binding to consensus oligonucleotides) in TNF-α stimulated HCET; type: cell-based, human; details: TNF-α 10 ng/ml
Method: (§1) At each time point the culture medium was removed and the adherent cells were scraped from the dish into 1 ml of cold PBS. The solution was centrifuged at 3000 rpm for 5 minutes. The cell pellet was lysed in 1 ml of cell extraction buffer provided with the activity assay kit (TransAm NFκB p65 Transcription Factor Assay Kit, Active Motif, Carlsbad, Calif.) on ice for 30 minutes, with vortexing every 10 minutes. The extract was centrifuged at 13,000 rpm for 10 minutes at 4° C. and the supernatant was used for activity assays following the kit protocol. In addition to the activity assay, the ELISA for total NFκB p65 subunit protein was completed simultaneously using aliquots of the same supernatants. ELISA values were used to standardize the activity values to correct for differences in protein concentration in each sample. The assays were repeated three times (n=3) and the results of a representative assay are reported as NFκB activity in arbitrary units±SEM. Statistical analysis was performed using the unpaired Student's t-test with significance set at P<0.05.
We hypothesized that Tβ4 functions as a transcription factor mediator in addition to its other known cellular functions. […] Transcription factor activity was analyzed calorimetrically using an assay that measured the ability of NFκB to bind to oligonucleotides containing consensus κB binding motifs immobilized to a plastic substrate. […]

NFκB [2] = assay: NFκB activity assay in TNF-α stimulated non-transformed human corneal epithelial cells (HCEC); type: cell-based; details: non-transformed human corneal epithelial culture, Tβ4 treatment, results not shown
Method: Non-transformed human corneal epithelial cells (HCEC) at passage 3 were purchased from Cascade Biologics (Portland, Oreg.). […] HCEC were used for experiments at passage 4. The transformed human corneal epithelial cell line 10.014 pRSV-T (HCET) was additionally used in this study. HCET were maintained in serum-free KGM on tissue culture plastic coated with a fibronectin-collagen type I matrix. Cells were cultured in a standard tissue culture incubator at 37° C. and in an atmosphere of 5% CO2 and 95% room air with medium changes every two days.
as §1, with “The assays were repeated three times (n=3) and the results of a representative assay are reported as NFκB activity in arbitrary units±SEM. Statistical analysis was performed using the unpaired Student's t-test with significance set at P<0.05.” left out

NFκB p65 subunit [3] = assay: NFκB p65 phosphorylation assay (CASE ELISA, phosphoserine 276) in HCET; type: cell-based, human; details: 30 minutes
Method: HCET were cultured in wells of a 96-well plate until approximately 80% confluent. […] At each time point adherent cells were fixed in cell fixing buffer containing 4% glutaraldehyde according to the phosphorylation assay kit protocol (CASE, cellular activation of signaling ELISA for phosphoserine 276 of NFκB p65 subunit, SuperArray, Frederick, Md.). Fixed cells were then processed using phospho-specific (phosphoserine 276 p65) or pan-protein specific (nonphosphorylated p65) primary antibodies and HRP-conjugated secondary antibodies. Following incubation with developing and stop solutions provided with the kit, individual well absorbance was read at 450 nm. Variation in cell number in individual wells was corrected by assaying the OD 540 nm of stained cells following completion of the phosphorylation assay and performing numerical correction of the OD 450 nm values. The assay was repeated twice (n=8) and a representative result is presented as relative amounts of phosphorylated and nonphosphorylated NFκB in arbitrary units±SEM. Statistical analysis was performed using the unpaired Student's t-test with significance set at P<0.05.
In addition to nuclear translocation, the p65 subunit of NFκB must undergo phosphorylation on several serine residues in order to be activated. […]

NFκB p65 subunit [4] = assay: Nuclear NFκB p65 protein level ELISA in HCET nuclear fractions; type: cell-based, human; details: TNF-α 10 ng/ml, Tβ4 1 μg/ml, 30 minutes, P=0.0066
Method: HCET were cultured until approximately 80% confluent. […] Cells maintained in culture medium only, or Tβ4 only were used as controls. The culture medium was removed and the adherent cells were scraped from the dish into 1 ml of cold PBS. The solution was centrifuged at 3000 rpm for 5 minutes. The cell pellet was resuspended in 0.5 ml hypotonic buffer (20 mM Tris-HCl, pH 7.4, 10 mM NaCl, 3 mM MgCl2) and incubated on ice for 15 minutes. 25 μl of 10% NP-40 was added with vortexing. The homogenate was centrifuged for 10 minutes at 3000 rpm at 4° C. The pellet was resuspended in 100 μl of the cell extraction buffer and incubated for 30 minutes on ice with vortexing every 10 minutes. The homogenate was centrifuged at 14,000 rpm for 30 minutes at 4° C. The resulting supernatant was used for the NFκB total p65 subunit ELISA. A representative analysis is presented as NFκB protein (pg/ml)±SEM. Statistical analysis was performed using the unpaired Student's t-test with significance set at P<0.05.
Nuclear translocation is an essential downstream event in NFκB mediated gene transcription. […] HCET were treated for 30 minutes and the amount of NFκB protein in nuclear fractions was measured by ELISA. Only activated, phosphorylated NFκB is capable of translocating to the nucleus.

NFκB p65 subunit [5] = assay: Nuclear translocation of NFκB p65 by immunofluorescence microscopy in HCET; type: cell-based, human; details: Tβ4 1 μg/ml during TNF-α stimulation, 30 minutes
Method: HCET were cultured on collagen-coated 4 chambered glass microscope slides to approximately 80% confluence. […] Cells maintained in culture medium only, or Tβ4 only were used as controls. Cells were fixed in 3.7% glutaraldehyde/PBS for 10 minutes then washed in PBS. Cells were permeabilized in 1% Triton X-100 for 5 minutes and washed again. The cells were then incubated with rabbit polyclonal antibodies specific for the N-terminus of human p65 NFκB (Santa Cruz Biotechnologies, Santa Cruz, Calif.) followed by FITC-conjugated goat anti-rabbit secondary antibodies. Digitized images were captured and stored (Axiophot fluorescence microscopy and imaging system, Carl Zeiss Medicine, Inc., Thornwood, N.Y.).
The nuclear translocation of NFκB was also examined morphologically in HCET by immunofluoresence microscopy using an antibody specific for the p65 subunit.

Substance: Thymosin beta 4 [Tβ4]
- inhibition of TNFα-stimulated IL-8 secretion (IL-8; HGF-1 fibroblasts, TNFα 20 ng/ml, 0.01 ug/ml Tβ4, 24 hours, p=0.0012): most inhibition
- IL-8 secretion, dose response (IL-8; HGF-1 fibroblasts, TNFα 20 ng/ml, several concentrations of Tβ4, 24 hours, FIG. 3): inhibited IL-8 secretion in a dose-dependent manner
- secreted IL-8 versus fibroblasts not treated with Tβ4 (IL-8; 1 ug/ml Tβ4, 24 hours, FIG. 1, p=0.0004): significantly lower levels of secreted IL-8
- secreted IL-8 versus fibroblasts not treated with Tβ4 (IL-8; 5 ug/ml Tβ4, 24 hours, FIG. 1, p=0.0016): significantly lower levels of secreted IL-8
- secreted IL-8 versus fibroblasts not treated with Tβ4 (IL-8; Tβ4 0.001-5 ug/ml (all levels), 24 hours): lower levels of secreted IL-8
- apoptotic cell death induced by TNF-α (gingival fibroblasts): significantly inhibits apoptotic cell death
- NFκB activity versus cells stimulated with TNF-α (NFκB [1]; Tβ4 1 μg/ml, 5, 10, 15 and 20 minutes of stimulation): increased NFκB activity
- TNF-α induced activation of NFκB (NFκB [1]; Tβ4 1 μg/ml, 30 and 60 minutes): significantly suppressed
- NFκB activity after TNF-α stimulation (NFκB [2]): decreased NFκB activity
- reduction of NFκB phosphorylation levels (NFκB p65 subunit [3]; TNF-α 10 ng/ml, Tβ4 1 μg/ml): 45%
- proportion of phosphorylated NFκB (NFκB p65 subunit [3]; Tβ4 present during TNF-α stimulation, 100% with TNF-α only): 55%
- NFκB protein in nuclear fractions (NFκB p65 subunit [4]): significant decrease
- NFκB p65 localization (fluorescence pattern) (NFκB p65 subunit [5]): mainly perinuclear
